Assay [1] deals with Pyricularia oryzae. Nature of the assay: microbe, parasite or virus in culture. Format: cell-based. The settings on record: read-out: growth inhibiting effect.
Assay [2] has as its system Verticillium albo-atrum. Nature of the assay: Anti-fungal spectrum, agar dilution method. Format: cell-based. The settings on record: PSA plate, 28° C, read-out: growth inhibiting effect.
The test system of assay [3] is Pellicularia sasakii. Nature of the assay: Anti-fungal spectrum, agar dilution method. Format: cell-based. The settings on record: read-out: growth inhibiting effect. Background: In agar dilution, organisms are placed on agar that contains the substance at set levels.
The subject of assay [4] is Glomerella cingulata.
Procedure: Test for Glomerella Cingulata controlling effect on grape
An aqueous dilution of the test compound in the form of a wettable powder preparation was applied to berries of grape at a rate of 20 ml per branch. After one day, Glomerella cingulata was inoculated on the surface of the berries immediately after injuring the inoculation site. Three days after inoculation, disease assessment was made. Percentage of control was calculated from the diameter of diseased area according to the following equation: [formula]
Assay [5] concerns Fusarium oxysporum f. lycopersici. As to the kind of experiment: Anti-fungal spectrum, agar dilution method. Format: cell-based. To be noted: PSA plate, 28° C, read-out: growth inhibiting effect.
For assay [6], the system named is Botrytis cinerea. Nature of the assay: Anti-fungal spectrum, agar dilution method. The assay is classed as cell-based. To be noted: PSA plate, 28° C, read-out: growth inhibiting effect.
For assay [7], the system named is Aspergillus niger ATCC 6275. As to the kind of experiment: Anti-fungal spectrum, agar dilution method. The assay is classed as cell-based. To be noted: Aspergillus niger ATCC 6275, 50 ppm, PSA plate, 28° C.
Assay [8] has as its system Colletotrichum lagenarium. As to the kind of experiment: Anti-fungal spectrum, agar dilution method. The settings on record: Colletotrichum orbiculare, PSA plate, 28° C, read-out: growth inhibiting effect. The assay is classed as cell-based.
Assay [9] relates to Sclerotinia sclerotiorum. Nature of the assay: Test for Sclerotinia sclerotiorum controlling effect on cucumbers. The assay is classed as in vivo. To be noted: 100 ppm. Here is the method: After one day, Sclerotinia sclerotiorum was inoculated on the surface of the leaf, and the disease severity was observed three days thereafter. The degree of the severity was determined in the following manner. The rate of diseased area on the leaf was measured and classified in one of the six infectious indexes (0, 1, 2, 3, 4, 5) according to the undermentioned criteria. The number of leaves corresponding to each infectious index ([NT]5) was determined, and degree of severity was calculated according to the undermentioned equation: […]

Assay [10] has as its system Corticium rolfsii. Nature of the assay: Anti-fungal spectrum, agar dilution method. The assay is classed as cell-based. To be noted: Agroathelia rolfsii, PSA plate, 28° C, read-out: growth inhibiting effect.
The test system of assay [11] is Phytophthora infestans. As to the kind of experiment: microbe, parasite or virus in culture. The assay is classed as cell-based. To be noted: read-out: growth inhibiting effect.
Assay [12] relates to Giberella fujikuroi. As to the kind of experiment: Anti-fungal spectrum, agar dilution method. To be noted: read-out: growth inhibiting effect. Format: cell-based.
Assay [13] deals with Rhizopus nigricans. As to the kind of experiment: Anti-fungal spectrum, agar dilution method. To be noted: Rhizopus stolonifer, PSA plate, 28° C, read-out: growth inhibiting effect. Format: cell-based.
Assay [14] concerns Glomerella cingulata. Nature of the assay: Anti-fungal spectrum, agar dilution method. Format: cell-based. The settings on record: Colletotrichum gloeosporioides, PSA plate, 28° C, read-out: growth inhibiting effect.
Assay [15] deals with Sclerotinia sclerotiorum. Nature of the assay: Anti-fungal spectrum, agar dilution method. The assay is classed as cell-based. To be noted: PSA plate, 28° C, read-out: growth inhibiting effect.
Assay [16] deals with Rhizoctonia solani. As to the kind of experiment: Anti-fungal spectrum, agar dilution method. Format: cell-based. To be noted: PSA plate, 28° C, read-out: growth inhibiting effect.
Assay [17] relates to Chaetomium globosum ATCC 6205. As to the kind of experiment: Anti-fungal spectrum, agar dilution method. The settings on record: Chaetomium globosum ATCC 6205, 50 ppm, PSA plate, 28° C. The assay is classed as cell-based.
The subject of assay [18] is Rhizoctonia solani.
Procedure: Test for Rhizoctonia solani controlling effect on cucumber
Farm soil was charged into pots of 9 cm in diameter and a soil (10 ml) infected with Rhizoctonia solani was dispersed over the surface of said soil. Each of the test compounds in the form of emulsifiable concentrates was diluted with water to a given concentration, and the dilution was applied into each pot in a proportion of 20 ml per pot. After 2 hours, 10 seeds of cucumber were sowed therein. 5 Days thereafter, the infectious state of the grown seedlings was observed, and the percentage of stand was calculated according to the following equation: [formula]
The subject of assay [19] is Botrytis cinerea. Nature of the assay: Test for Botrytis cinerea controlling effect on cucumbers. The assay is classed as in vivo. On the procedure:
After one day, agar discs (diameter: 5 mm) with Botrytis cinerea were put on the leaves for inoculation. Three days after, the disease severity was observed, and the disease-controlling effect was estimated. Percentage of control was determined by the following procedure. The rate of diseased area on the tested leaf was measured and classified in one of the six infectious indexes (0, 1, 2, 3, 4, 5) according to the undermentioned criteria. The number of leaves corresponding to each infectious index ([NT]5) was determined, and percentage of control was calculated according to the undermentioned equation: […]

Setting [20] is: Pellicularia sasakii, 50 ppm, PSA plate, 28° C.
Where [21] appears, read: Giberella fujikuroi, 50 ppm, PSA plate, 28° C.

Like-named read-outs stand apart in the source and are kept apart here.

For `CC12CC1(Cl)C(=O)N(c1cc(Cl)cc(Cl)c1)C2=O` (stereo not drawn) [Compound 1, N-(3,5-dichlorophenyl)-α-chloro-β-methylcyclopropanedicarboximide], the inhibition at 50 ppm in [1] is 90%; in [2], 100%; in [3] (setting [20]), 100%; in [5] it was 100%; in assay [6] it was 100%; in [8], 100%. Further, the inhibition at 50 ppm in assay [10], in assay [11], in [12] (setting [21]), in assay [13], in assay [14] and in [15] was 100% throughout. In addition, the inhibition at 50 ppm in assay [16] stood at 100%. In assay [4] (250 ppm of ingredient), this molecule registered a Percentage of control of 100%. Further, the growth inhibiting effect entry in [7] and in assay [17] was “A (no growth)” throughout. In [9], this molecule gave a Degree of severity of 100%. Besides, the Percentage of stand in assay [18] (250 ppm) and in [18] (500 ppm) was 100% each time.

Consider `O=C1C2CC2(Cl)C(=O)N1c1cc(Cl)cc(Cl)c1` (stereo not drawn) [Compound 2], for which the Percentage of control in [4] (250 ppm of ingredient), in assay [19] (50 ppm) and in [19] (200 ppm) was 100% throughout. The molecule also displayed a Degree of severity in [9] of 100%. In addition, the Percentage of stand in [18] (250 ppm) and in [18] (500 ppm) was 100% in each case.

In the case of `CC12CC1(Cl)C(=O)N(c1cc(Br)cc(Br)c1)C2=O` (stereo not drawn) [Compound 3, N-(3,5-dibromophenyl)-α-chloro-β-methylcyclopropanedicarboximide], the inhibition at 50 ppm in assay [1] worked out at 90%; in assay [2], 100%; in assay [3] (setting [20]) it was 100%; in [5], 100%; in assay [6], 100%; in assay [8], 90%. The inhibition at 50 ppm in assay [10] is 100%; in [11] it was 100%; in assay [12] (setting [21]), 100%; in [13] it was 90%; in assay [14], 100%; in [15], 100%. Further, in assay [16], the inhibition at 50 ppm turned out to be 100%. The Percentage of control in assay [4] (250 ppm of ingredient) is listed as 78.5%; in assay [19] (50 ppm) it was 92%; in assay [19] (200 ppm), 100%. Moreover, the growth inhibiting effect result in [7] and in [17] was “A (no growth)” each time. The molecule also had a Degree of severity in assay [9] of 94%.

`CC1C2C(=O)N(c3cc(Cl)cc(Cl)c3)C(=O)C12Cl` (stereo not drawn) [Compound 4] gave a Degree of severity in assay [9] of 100%. Further, the figures for the Percentage of stand in assay [18] (250 ppm) and in [18] (500 ppm) were 96.7% and 100%, respectively. The Percentage of control in [19] (50 ppm) and in assay [19] (200 ppm) was 100% in each case.

Take `CC12CC1(Br)C(=O)N(c1cc(Cl)cc(Cl)c1)C2=O` (stereo not drawn) [Compound 5]: in assay [9], the Degree of severity was found to be 100%. In addition, the Percentage of control in assay [19] (50 ppm) is listed as 95%; in assay [19] (200 ppm), 100%.

In assay [9], `CCCCNC(=O)n1c(NC(=O)OC)nc2ccccc21` [Methyl-1-(butylcarbamoyl)-2-benzimidazole carbamate, reference compound] came in with a Degree of severity of 35%. The results for the Percentage of control in assay [19] (50 ppm) and in [19] (200 ppm) were 90% and 100%, respectively.

In the case of `O=[N+]([O-])c1c(Cl)c(Cl)c(Cl)c(Cl)c1Cl` [PCNB, reference compound], in assay [18] (250 ppm), the Percentage of stand amounted to 93.4%.

With `CC12CC1(C)C(=O)N(c1cc(Cl)cc(Cl)c1)C2=O` (stereo not drawn) [reference compound], the inhibition at 50 ppm in assay [1] amounted to 0%; in assay [2], 5%; in assay [3], 100%; in assay [5], 70%; in assay [6] it was 100%; in assay [8], 0%. The inhibition at 50 ppm came to 0% in assay [10]; 0% in assay [11]; 0% in assay [12]; 0% in [13]; 30% in [14]; 100% in assay [15]. Moreover, the inhibition at 50 ppm in assay [16] was 90%. In assay [4] (250 ppm of ingredient), this molecule registered a Percentage of control of 6.5%. For the same molecule, the growth inhibiting effect result in assay [7] and in [17] was “E (5 % inhibition)” throughout. Also, the figures for the Percentage of stand in assay [18] (250 ppm) and in assay [18] (500 ppm) were 0% and 21.3%, respectively.

In turn, Mancozeb [reference compound] displayed a Percentage of control in assay [4] (140 ppm of ingredient) of 65.0%.
